How the values were obtained:
[1] = test system: imiquimod (IMQ) mouse model of psoriasis; format: in vivo, Balb/c mice
Protocol: In the imiquimod (IMQ) mouse model of psoriasis. Balb/c mice (10 males/group) received daily topical IMQ (5% cream) on shaved back and right ear for 5 days. Animals received oral active drug (90 mg-eq MMF/kg twice daily) or vehicle from Day −5 to Day 5. Erythema score was the primary outcome measure. […] The AUCmolar-MMF-GA:AUCmolar-MMF Ratio (%) in mice dosed with active drug at 90 mg/kg was 23.6%.

[2] = test system: MOG35-55 mouse EAE model of MS

AUCmolar-MMF-GA:AUCmolar-MMF Ratio ([1]; male, Balb/c, mouse, in vivo, 90 mg/kg): 23.6% | AUCmolar-MMF-GA:AUCmolar-MMF Ratio ([2]; female, C57BL/6, mouse, in vivo, 90 mg/kg): 23.6%
SMILES: CCN(CC)C(=O)COC(=O)/C=C/C(=O)OC [Active drug, (N,N-diethylcarbamoyl)methyl methyl (2E)but-2-ene-1,4-dioate]
Erythema score versus control ([1]; oral 90 mg-eq MMF/kg twice daily from Day -5 to Day 5, Balb/c mice, topical IMQ 5% cream): significant reduction | EAE clinical score (Day 29 and overall AUC) compared to vehicle ([2]; oral 90 mg-eq MMF/kg twice daily on Days 3 to 29, C57BL/6 mice, 5 point scale): significant reduction

Reference: patent US20150190360A1, “METHODS OF ADMINISTERING MONOMETHYL FUMARATE” (XenoPort, Inc., priority 2013, published 2015)
